Where two headings read alike, the source gives them in different places.
Key:
IRAK4 = IRAK4 (Homo sapiens (Human), UniProt Q9NWZ3); assay: IRAK4 Inhibition Assay; format: biochemical; settings: ATP 500 μM; IRAK4 0.6 nM; 60 min at room temperature
Experimental: The assays were performed in U-bottom 384-well plates. […] The reaction was initiated by the combination of IRAK4 with substrates and test compounds. The reaction was incubated at room temperature for 60 min. and terminated by adding 45 μL of 35 mM EDTA to each sample. The reaction mixture was analyzed on the Caliper LABCHIP® 3000 (Caliper, Hopkinton, Mass.) by electrophoretic separation of the fluorescent substrate and phosphorylated product.

[1] = system: TLR2 induced IL-6 in peripheral blood mononuclear cells (PBMCs); assay: PBMC TLR2 Induced IL-6 Assay; format: cell-based, human; settings: human PBMCs, 10 μg/ml lipoteichoic acid for 5 hours, IL-6 by ELISA; for IC50: value without asterisk, read-out: Cell IC50
How it was run: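 Human PBMCs (250000 cells/well) in RPMI with 10% heat-inactivated FCS pre-treated with compound for 30 min at 37° C, then stimulated 5 h with 10 μg/ml lipoteichoic acid. Supernatant IL-6 measured by ELISA and reported as IC50 or EC50.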

Chain of IRAK4 (Q9NWZ3 whole entry, species assumed): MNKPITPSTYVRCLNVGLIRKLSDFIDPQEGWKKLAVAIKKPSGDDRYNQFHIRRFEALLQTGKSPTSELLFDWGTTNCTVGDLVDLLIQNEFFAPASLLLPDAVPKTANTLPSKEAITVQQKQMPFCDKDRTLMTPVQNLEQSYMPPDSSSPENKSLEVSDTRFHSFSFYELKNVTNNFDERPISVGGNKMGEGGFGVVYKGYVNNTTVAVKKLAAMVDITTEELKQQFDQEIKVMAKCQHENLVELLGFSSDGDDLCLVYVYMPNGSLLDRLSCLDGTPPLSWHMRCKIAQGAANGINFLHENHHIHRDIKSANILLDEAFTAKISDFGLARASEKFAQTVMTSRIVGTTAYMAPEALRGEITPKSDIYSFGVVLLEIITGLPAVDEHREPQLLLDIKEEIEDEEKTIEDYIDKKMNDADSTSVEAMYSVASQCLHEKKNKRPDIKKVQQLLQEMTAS

Compound	IC50 (IRAK4) [nM]	IC50 ([1]; Homo sapiens, PBMC, 5 h) [nM]	IC50 [1] [nM]	EC50 ([1]; Homo sapiens, PBMC, 5 h, EC50 determinations are indicated with an asterisk, read-out: Cell EC50 (asterisk)) [nM]
CC(C)Nc1cc(Nc2ccn3nccc3n2)ncc1C(=O)NC12CCC(N)(CC1)CC2 [Example 318, N-(4-aminobicyclo[2.2.2]octan-1-yl)-4-(isopropylamino)-6-(pyrazolo[1,5-a]pyrimidin-5-ylamino)nicotinamide]	6.9	278	–	–
CC(C)Nc1cc(Nc2ccc3ncsc3c2)ncc1C(=O)NCC[C@@H](C)NC(=O)CCCCC(C)(C)O [Example 191]	3.4	451	–	–
Cc1cc2nc(Nc3cc(NC4CCC(F)C4)c(C(=O)NC[C@@H](F)C(C)(C)O)cn3)ccn2n1 (some centres unmarked) [Example 267]	7.4	468	–	–
CC(C)(O)[C@H](F)CNC(=O)c1cnc(Nc2nc3ccnn3cc2F)cc1NC1CCCCC1F (some centres unmarked) [Example 479]	4.3	473	–	–
CC(C)(O)[C@H](F)CNC(=O)c1cnc(Nc2ccn3nccc3n2)cc1NC1CCCC1F (some centres unmarked) [Example 245]	2.8	390	–	–
CC(C)(O)[C@H](F)CNC(=O)c1cnc(Nc2ccc3ncsc3c2)cc1NC1CCCCCC1 [Example 87]	5.3	271	–	–
CC(C)(O)C(F)(F)CNC(=O)c1cnc(Nc2ccc3ncsc3c2)cc1NC1CC1 [Example 170]	5.9	477	–	–
CC(C)(O)[C@H](F)CNC(=O)c1cnc(Nc2ccc3ncsc3c2)cc1NCC(F)(F)C(C)(C)O [Example 107]	3.9	174	–	–
CC(C)Nc1cc(Nc2ccc3ncsc3c2)ncc1C(=O)N[C@H]1CC[C@H](NC(=O)c2ccccn2)CC1 [Example 201]	4.5	499	–	–
O=C(NC1CCC(O)CC1)c1cnc(Nc2ccc3nccn3n2)cc1NC1CCC1 (centres unmarked) [Example 282]	11.4	458	–	–
CC(C)Nc1cc(Nc2ccn3ncc(Cl)c3n2)ncc1C(=O)NC[C@@H](F)C(C)(C)O [Example 243]	5.5	–	567	–
CC(C)C(O)[C@H](F)CNC(=O)c1cnc(Nc2ccc3ncsc3c2)cc1N[C@@H]1CCC[C@H]1O (some centres unmarked) [Example 331]	2.4	–	163	–
CC(C)Nc1cc(Nc2ccc3nccnc3c2)ncc1C(=O)NC[C@@H](F)C(C)(C)O [Example 55]	5.9	349	–	–
CC(C)(O)[C@H](F)CNC(=O)c1cnc(Nc2ccc3nccn3n2)cc1NC1CCC(F)C1 (some centres unmarked) [Example 280]	2.7	–	127	–
Cc1nc2ccc(Nc3cc(NC4CCCC4F)c(C(=O)NC[C@@H](F)C(C)(C)O)cn3)cc2s1 (some centres unmarked) [Example 349]	8.6	–	475	–
CC(C)(O)[C@H](F)CNC(=O)c1cnc(Nc2ccc3ncsc3c2)cc1N[C@H]1CCCC(O)C1 (stereo partly drawn) [Example 327, 6-(benzo[d]thiazol-6-ylamino)-N—((R)-2-fluoro-3-hydroxy-3-methylbutyl)-4-(3-hydroxycyclohexylamino)nicotinamide]	9.7	–	1000	–
CC(C)(O)[C@H](F)CNC(=O)c1cnc(Nc2ccc3ncsc3c2)cc1N[C@H]1CCCC(O)C1 (some centres unmarked) [Example 328]	4.8	–	491	–
CC(C)(O)[C@H](F)CNC(=O)c1cnc(Nc2ccc3ncccc3n2)cc1NC1CC1 [Example 122]	4.2	207	–	–
CC(C)(O)[C@H](F)CNC(=O)c1cnc(Nc2ccc3ncsc3c2)cc1Nc1ccc(S(C)(=O)=O)cc1 [Example 382]	6.3	491	–	–
CC(C)(O)[C@H](F)CNC(=O)c1cnc(Nc2ccc3ncsc3c2)cc1Nc1ncc(CO)s1 [Example 416]	1.8	255	–	–
CC(C)(O)[C@H](F)CNC(=O)c1cnc(Nc2ccc3ncsc3c2)cc1NC1CCCC1 [Example 33, (R)-6-(benzo[d]thiazol-6-ylamino)-4-(cyclopentylamino)-N-(2-fluoro-3-hydroxy-3-methylbutyl)nicotinamide]	3.7	64	–	–
CC(C)(O)[C@H](F)CNC(=O)c1cnc(Nc2ccc3nccnc3c2)cc1NC1CCCCCC1 [Example 88]	9	457	–	–
CC(C)Nc1cc(Nc2ccc3ncsc3c2)ncc1C(=O)N[C@H]1CC[C@H](NC(=O)N2CCOCC2)CC1 [Example 205]	1.8	169	–	–
CC(C)Nc1cc(Nc2ccc3ncsc3c2)ncc1C(=O)NCCc1ccc(C(N)=O)cc1 [Example 11]	7.8	726	–	–
CC(C)Nc1cc(Nc2ccc3ncsc3c2)ncc1C(=O)NC1CCCC(CO)C1 (centres unmarked) [Example 172]	6.7	–	300	–
CC(C)(O)[C@H](F)CNC(=O)c1cnc(Nc2ccc3ncccc3c2)cc1NC1CCCC1F (some centres unmarked) [Example 351]	5.9	227	–	–
CC(C)(O)[C@H](F)CNC(=O)c1cnc(Nc2ccn3ncc(F)c3n2)cc1NC1CC1 [Example 251]	3.2	369	–	–
CC(C)(O)[C@H](F)CNC(=O)c1cnc(Nc2ccc3ncsc3c2)cc1NC1C2CCCC21 (some centres unmarked) [Example 108]	2.3	507	–	–

Compound	IC50 (IRAK4) [nM]	IC50 ([1]; Homo sapiens, PBMC, 5 h) [nM]	IC50 [1] [nM]	EC50 ([1]; Homo sapiens, PBMC, 5 h, EC50 determinations are indicated with an asterisk, read-out: Cell EC50 (asterisk)) [nM]
CC(C)(O)[C@H](F)CNC(=O)c1cnc(Nc2ccc3ncsc3c2)cc1NCCO [Example 161]	17.9	577	–	–
CC(C)(O)[C@H](F)CNC(=O)c1cnc(Nc2cc3scnc3cc2F)cc1NCC(F)(F)F [Example 515]	3.4	450	–	–
Cc1cc(O)ccc1Nc1cc(Nc2ccc3ncsc3c2)ncc1C(=O)NC[C@@H](F)C(C)(C)O [Example 86]	11.4	281	–	–
CC(C)(O)[C@H](F)CNC(=O)c1cnc(Nc2ccc3ncsc3c2)cc1NC1CCC(O)C1 (some centres unmarked) [Example 38]	5.2	–	426	–
CC(C)(O)[C@H](F)CNC(=O)c1cnc(Nc2ccc3nonc3c2)cc1NCC(F)(F)F [Example 100]	21.7	830	–	–
CC(C)(O)C(F)(F)CNC(=O)c1cnc(Nc2ccc3nccn3n2)cc1NC1CC1 [Example 283]	9.6	417	–	–
CNC(=O)c1cnc(Nc2ccc3ncsc3c2)cc1NC1C2CC3CC1CC(O)(C3)C2 (single isomer, unassigned) [Example 147]	17.4	–	507	–
CC1(O)CCC(Nc2cc(Nc3ccc4ncsc4c3)ncc2C(=O)NC[C@@H](F)C(C)(C)O)C1 (some centres unmarked) [Example 50]	6.8	571	–	–
CC(CCF)Nc1cc(Nc2nc3ccnn3cc2F)ncc1C(=O)NC[C@@H](F)C(C)(C)O (some centres unmarked) [Example 502]	4.8	–	–	144
CC(C)(O)[C@H](F)CNC(=O)c1cnc(Nc2ccc3ncsc3c2)cc1NC12CCC(NC(=O)c3ccccn3)(CC1)C2 [Example 400]	7.5	119	–	–
CCC(C)Nc1cc(Nc2ccn3nccc3c2)ncc1C(=O)NC[C@@H](F)C(C)(C)O (some centres unmarked) [Example 302]	5.6	426	–	–
O=C(NC[C@@H](F)CO)c1cnc(Nc2ccc3ncsc3c2)cc1NC1CCCC1 [Example 150]	5.9	395	–	–
CC(C)Nc1cc(Nc2ccc3ncsc3c2)ncc1C(=O)NCC[C@@H](C)NC(=O)CCCC(C)(C)O [Example 190]	3.3	250	–	–
CC(C)(O)[C@H](F)CNC(=O)c1cnc(Nc2nc3ccnn3cc2F)cc1NC1CCC(F)C1 (some centres unmarked) [Example 408]	1.9	–	209	–
CC(C)(O)[C@H](F)CNC(=O)c1cnc(Nc2ccc3ncsc3c2)cc1NC12CCC(O)(CC1)C2 [Example 133]	2	230	–	–
CC(C)(O)[C@H](F)CNC(=O)c1cnc(Nc2ccc3ncccc3n2)cc1NC1CCOCC1 [Example 430]	1.6	102	–	–
CC(C)Nc1cc(Nc2ccc3ncsc3c2)ncc1C(=O)NC[C@@H](F)C(C)(O)C(F)(F)F (some centres unmarked) [Example 17]	4.7	221	–	–
O=C(Nc1ccc(Cn2cncn2)cc1)c1cnc(Nc2ccc3ncsc3c2)cc1NC1CCCC1 [Example 156]	9.9	502	–	–
O=C(NCCC1(O)CCC1)c1cnc(Nc2ccc3ncsc3c2)cc1NC1CC1 [Example 10]	5.1	115	–	–
CC(C)C(O)[C@H](F)CNC(=O)c1cnc(Nc2ccc3ncsc3c2)cc1NC1CC1 (some centres unmarked) [Example 26]	7.3	–	121	–
CC(C)(O)[C@H](F)CNC(=O)c1cnc(Nc2ccc3ncc(C#N)cc3n2)cc1NC1CCCC1(F)F (some centres unmarked) [Example 441]	1.8	28	–	–
CC(C)Nc1cc(Nc2ccc3ncsc3c2)ncc1C(=O)NCC[C@@H](C)NC(=O)Cn1ccnn1 [Example 193]	3.1	345	–	–
CC(C)(O)[C@H](F)CNC(=O)c1cnc(Nc2ccn3nccc3c2)cc1NC1CC1 [Example 92]	4.8	177	–	–
CC(C)Nc1cc(Nc2ccc3ncsc3c2)ncc1C(=O)NCC[C@@H](C)NC(=O)N1CCCC1 [Example 212]	6.9	712	–	–
CC(=O)N[C@H]1CC[C@H](NC(=O)c2cnc(Nc3ccc4ncsc4c3)cc2NC(C)C)CC1 [Example 200]	2.2	94	–	–
CC(C)(O)[C@H](F)CNC(=O)c1cnc(Nc2ccn3nccc3n2)cc1NC1COCCC1F (some centres unmarked) [Example 256]	8.8	587	–	–
CC(C)(O)[C@H](F)CNC(=O)c1cnc(Nc2nc3ccnn3cc2F)cc1NC1CCC(F)C1 (some centres unmarked) [Example 478]	2.2	–	50	–
